Reference: ChEMBL document CHEMBL5291721, “A preclinical secondary pharmacology resource illuminates target-adverse drug reaction associations of marketed drugs” (Nat Commun, 2023)

Legend:
Mu-type opioid receptor = Mu-type opioid receptor (Homo sapiens, UniProt P35372)
[1] = target: T1, Prostaglandin G/H synthase 1 (Homo sapiens, UniProt P23219); format: functional
[2] = target: T1, Prostaglandin G/H synthase 1; format: functional; remark: listed apart in the source
[3] = target: Voltage-gated inwardly rectifying potassium channel KCNH2 (Homo sapiens, UniProt Q12809); format: functional
[4] = target: Sodium-dependent dopamine transporter (Homo sapiens, UniProt Q01959)
Acetylcholinesterase = Acetylcholinesterase (Homo sapiens, UniProt P22303); format: functional
Thromboxane A2 receptor [5] = target: T2, Thromboxane A2 receptor (Homo sapiens, UniProt P21731); format: functional, cell-based
T2 sequence (P21731 whole entry): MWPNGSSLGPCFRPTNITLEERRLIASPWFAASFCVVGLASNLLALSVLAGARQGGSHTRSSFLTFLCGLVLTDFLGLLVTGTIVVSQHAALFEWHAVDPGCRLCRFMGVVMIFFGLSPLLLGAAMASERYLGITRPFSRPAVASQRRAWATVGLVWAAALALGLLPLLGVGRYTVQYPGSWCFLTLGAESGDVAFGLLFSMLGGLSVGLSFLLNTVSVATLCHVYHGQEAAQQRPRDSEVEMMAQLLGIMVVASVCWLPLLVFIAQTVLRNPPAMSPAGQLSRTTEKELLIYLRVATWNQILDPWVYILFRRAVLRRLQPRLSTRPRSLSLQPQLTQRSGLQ

[6] = target: T3, 5-hydroxytryptamine receptor 1A (Homo sapiens, UniProt P08908)
T3 sequence (P08908 whole entry): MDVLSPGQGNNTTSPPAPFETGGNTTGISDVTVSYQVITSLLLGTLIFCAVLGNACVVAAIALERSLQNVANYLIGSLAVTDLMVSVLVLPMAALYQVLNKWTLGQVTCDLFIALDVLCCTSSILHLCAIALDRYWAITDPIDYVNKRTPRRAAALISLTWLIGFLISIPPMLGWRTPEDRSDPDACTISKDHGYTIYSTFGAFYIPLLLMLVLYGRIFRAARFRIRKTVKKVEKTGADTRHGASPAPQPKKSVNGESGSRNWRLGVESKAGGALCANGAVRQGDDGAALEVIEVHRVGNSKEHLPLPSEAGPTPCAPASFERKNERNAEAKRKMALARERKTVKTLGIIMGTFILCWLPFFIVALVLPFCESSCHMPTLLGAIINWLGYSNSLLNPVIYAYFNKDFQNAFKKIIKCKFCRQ

Histamine H3 receptor = Histamine H3 receptor (Homo sapiens, UniProt Q9Y5N1)
Sequence of Histamine H3 receptor (Q9Y5N1 whole entry): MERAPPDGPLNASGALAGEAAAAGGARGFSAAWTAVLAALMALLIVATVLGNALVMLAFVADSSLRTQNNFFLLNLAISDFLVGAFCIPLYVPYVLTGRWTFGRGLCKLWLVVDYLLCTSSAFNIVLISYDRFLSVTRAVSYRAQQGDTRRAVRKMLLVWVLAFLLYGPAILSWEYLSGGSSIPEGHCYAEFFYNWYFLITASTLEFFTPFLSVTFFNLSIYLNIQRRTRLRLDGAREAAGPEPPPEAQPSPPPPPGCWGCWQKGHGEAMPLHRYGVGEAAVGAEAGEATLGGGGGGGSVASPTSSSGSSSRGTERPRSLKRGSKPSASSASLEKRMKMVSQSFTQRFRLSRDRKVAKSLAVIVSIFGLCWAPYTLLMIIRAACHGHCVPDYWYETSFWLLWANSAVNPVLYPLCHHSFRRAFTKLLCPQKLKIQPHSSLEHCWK

[7] = target: T4, Amine oxidase [flavin-containing] A (Homo sapiens, UniProt P21397); format: functional
T4 sequence (P21397 whole entry): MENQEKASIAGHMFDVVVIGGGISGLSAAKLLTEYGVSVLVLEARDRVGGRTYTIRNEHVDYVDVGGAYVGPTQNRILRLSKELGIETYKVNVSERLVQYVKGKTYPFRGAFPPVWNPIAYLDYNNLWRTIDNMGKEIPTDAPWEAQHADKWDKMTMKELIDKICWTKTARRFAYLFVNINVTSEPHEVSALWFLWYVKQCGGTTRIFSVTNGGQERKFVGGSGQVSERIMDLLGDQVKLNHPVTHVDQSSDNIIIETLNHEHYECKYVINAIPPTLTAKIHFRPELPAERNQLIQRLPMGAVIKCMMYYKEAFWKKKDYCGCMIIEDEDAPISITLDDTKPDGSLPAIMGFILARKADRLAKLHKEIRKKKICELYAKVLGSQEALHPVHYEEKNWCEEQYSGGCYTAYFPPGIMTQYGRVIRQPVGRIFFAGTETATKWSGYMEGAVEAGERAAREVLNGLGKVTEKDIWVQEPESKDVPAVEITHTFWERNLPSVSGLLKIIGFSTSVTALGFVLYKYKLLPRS

[8] = target: T5, Muscarinic acetylcholine receptor M2 (Homo sapiens, UniProt P08172)
T5 sequence (P08172 whole entry): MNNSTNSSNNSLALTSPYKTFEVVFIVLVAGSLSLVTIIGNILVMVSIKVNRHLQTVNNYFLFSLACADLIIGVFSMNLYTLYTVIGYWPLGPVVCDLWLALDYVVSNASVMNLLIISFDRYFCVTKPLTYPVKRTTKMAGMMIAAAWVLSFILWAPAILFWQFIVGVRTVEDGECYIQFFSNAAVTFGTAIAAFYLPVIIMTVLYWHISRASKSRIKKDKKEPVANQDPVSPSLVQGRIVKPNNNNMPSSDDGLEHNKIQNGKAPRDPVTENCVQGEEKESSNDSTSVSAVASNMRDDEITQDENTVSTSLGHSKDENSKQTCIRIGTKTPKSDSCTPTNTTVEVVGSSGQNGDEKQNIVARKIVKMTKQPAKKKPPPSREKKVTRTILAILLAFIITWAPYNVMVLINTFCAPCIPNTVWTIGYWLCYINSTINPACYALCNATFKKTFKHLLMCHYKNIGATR

D(3) dopamine receptor = D(3) dopamine receptor (Homo sapiens, UniProt P35462)
Sequence of D(3) dopamine receptor (P35462 whole entry): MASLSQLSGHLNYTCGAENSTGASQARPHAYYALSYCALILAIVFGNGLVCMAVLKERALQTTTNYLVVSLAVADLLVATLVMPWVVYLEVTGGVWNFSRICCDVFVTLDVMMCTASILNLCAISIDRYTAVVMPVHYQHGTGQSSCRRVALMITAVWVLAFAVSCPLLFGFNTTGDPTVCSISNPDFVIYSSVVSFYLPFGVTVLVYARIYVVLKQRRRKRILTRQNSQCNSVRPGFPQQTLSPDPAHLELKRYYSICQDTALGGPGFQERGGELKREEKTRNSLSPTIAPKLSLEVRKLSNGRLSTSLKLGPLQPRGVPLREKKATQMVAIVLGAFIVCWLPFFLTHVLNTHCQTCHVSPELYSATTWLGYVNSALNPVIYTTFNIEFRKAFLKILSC

D(1A) dopamine receptor = D(1A) dopamine receptor (Homo sapiens, UniProt P21728)
Sequence of D(1A) dopamine receptor (P21728 whole entry): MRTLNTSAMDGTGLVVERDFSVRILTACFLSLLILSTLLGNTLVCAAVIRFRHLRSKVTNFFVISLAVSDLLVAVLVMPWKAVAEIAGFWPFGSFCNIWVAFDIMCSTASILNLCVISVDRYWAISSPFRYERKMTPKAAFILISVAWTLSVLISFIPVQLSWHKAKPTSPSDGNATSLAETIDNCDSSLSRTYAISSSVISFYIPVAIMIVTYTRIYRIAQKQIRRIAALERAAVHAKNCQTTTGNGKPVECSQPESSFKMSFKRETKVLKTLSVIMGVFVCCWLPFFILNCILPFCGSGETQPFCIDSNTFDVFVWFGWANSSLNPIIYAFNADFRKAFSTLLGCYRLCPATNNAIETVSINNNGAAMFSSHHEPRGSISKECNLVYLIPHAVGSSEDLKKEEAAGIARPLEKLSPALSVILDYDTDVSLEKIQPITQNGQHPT

Prothrombin = Prothrombin (Homo sapiens, UniProt P00734); format: functional
[9] = target: Sodium-dependent noradrenaline transporter (Homo sapiens, UniProt P23975)
Sequence of Sodium-dependent noradrenaline transporter (P23975 whole entry): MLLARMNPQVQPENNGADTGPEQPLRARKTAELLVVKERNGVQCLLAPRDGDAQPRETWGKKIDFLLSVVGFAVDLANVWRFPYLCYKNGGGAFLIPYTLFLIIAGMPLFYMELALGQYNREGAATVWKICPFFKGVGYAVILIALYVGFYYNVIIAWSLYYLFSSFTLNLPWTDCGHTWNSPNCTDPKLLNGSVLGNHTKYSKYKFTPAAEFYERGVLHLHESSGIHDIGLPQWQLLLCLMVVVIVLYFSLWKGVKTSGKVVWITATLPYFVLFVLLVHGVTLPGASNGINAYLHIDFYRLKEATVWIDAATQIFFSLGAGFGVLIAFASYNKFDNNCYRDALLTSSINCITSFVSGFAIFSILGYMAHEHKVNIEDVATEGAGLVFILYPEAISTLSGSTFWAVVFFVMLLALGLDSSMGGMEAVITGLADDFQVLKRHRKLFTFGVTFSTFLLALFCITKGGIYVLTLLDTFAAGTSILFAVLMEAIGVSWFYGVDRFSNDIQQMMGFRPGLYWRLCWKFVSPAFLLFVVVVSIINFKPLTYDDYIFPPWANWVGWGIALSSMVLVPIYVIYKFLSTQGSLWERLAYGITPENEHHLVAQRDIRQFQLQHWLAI

Thromboxane A2 receptor [10] = target: T2, Thromboxane A2 receptor; format: functional, cell-based; remark: listed apart in the source
[11] = target: 5-hydroxytryptamine receptor 2B (Homo sapiens, UniProt P41595); format: functional, cell-based
Sequence of 5-hydroxytryptamine receptor 2B (P41595 whole entry): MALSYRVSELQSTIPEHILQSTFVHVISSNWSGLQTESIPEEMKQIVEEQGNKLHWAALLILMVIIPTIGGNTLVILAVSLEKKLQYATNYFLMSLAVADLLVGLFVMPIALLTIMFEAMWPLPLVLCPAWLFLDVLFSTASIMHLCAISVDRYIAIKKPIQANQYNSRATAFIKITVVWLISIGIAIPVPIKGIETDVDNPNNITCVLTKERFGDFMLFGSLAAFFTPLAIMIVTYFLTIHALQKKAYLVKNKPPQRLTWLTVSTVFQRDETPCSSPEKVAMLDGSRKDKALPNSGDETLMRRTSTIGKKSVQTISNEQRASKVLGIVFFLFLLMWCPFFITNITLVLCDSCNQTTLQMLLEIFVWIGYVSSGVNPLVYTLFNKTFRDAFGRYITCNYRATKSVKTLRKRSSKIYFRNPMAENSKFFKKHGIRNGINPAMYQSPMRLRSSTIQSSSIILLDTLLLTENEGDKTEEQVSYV

[12] = target: cGMP-inhibited 3',5'-cyclic phosphodiesterase 3A (Homo sapiens, UniProt Q14432); format: functional
Sequence of cGMP-inhibited 3',5'-cyclic phosphodiesterase 3A (Q14432 whole entry): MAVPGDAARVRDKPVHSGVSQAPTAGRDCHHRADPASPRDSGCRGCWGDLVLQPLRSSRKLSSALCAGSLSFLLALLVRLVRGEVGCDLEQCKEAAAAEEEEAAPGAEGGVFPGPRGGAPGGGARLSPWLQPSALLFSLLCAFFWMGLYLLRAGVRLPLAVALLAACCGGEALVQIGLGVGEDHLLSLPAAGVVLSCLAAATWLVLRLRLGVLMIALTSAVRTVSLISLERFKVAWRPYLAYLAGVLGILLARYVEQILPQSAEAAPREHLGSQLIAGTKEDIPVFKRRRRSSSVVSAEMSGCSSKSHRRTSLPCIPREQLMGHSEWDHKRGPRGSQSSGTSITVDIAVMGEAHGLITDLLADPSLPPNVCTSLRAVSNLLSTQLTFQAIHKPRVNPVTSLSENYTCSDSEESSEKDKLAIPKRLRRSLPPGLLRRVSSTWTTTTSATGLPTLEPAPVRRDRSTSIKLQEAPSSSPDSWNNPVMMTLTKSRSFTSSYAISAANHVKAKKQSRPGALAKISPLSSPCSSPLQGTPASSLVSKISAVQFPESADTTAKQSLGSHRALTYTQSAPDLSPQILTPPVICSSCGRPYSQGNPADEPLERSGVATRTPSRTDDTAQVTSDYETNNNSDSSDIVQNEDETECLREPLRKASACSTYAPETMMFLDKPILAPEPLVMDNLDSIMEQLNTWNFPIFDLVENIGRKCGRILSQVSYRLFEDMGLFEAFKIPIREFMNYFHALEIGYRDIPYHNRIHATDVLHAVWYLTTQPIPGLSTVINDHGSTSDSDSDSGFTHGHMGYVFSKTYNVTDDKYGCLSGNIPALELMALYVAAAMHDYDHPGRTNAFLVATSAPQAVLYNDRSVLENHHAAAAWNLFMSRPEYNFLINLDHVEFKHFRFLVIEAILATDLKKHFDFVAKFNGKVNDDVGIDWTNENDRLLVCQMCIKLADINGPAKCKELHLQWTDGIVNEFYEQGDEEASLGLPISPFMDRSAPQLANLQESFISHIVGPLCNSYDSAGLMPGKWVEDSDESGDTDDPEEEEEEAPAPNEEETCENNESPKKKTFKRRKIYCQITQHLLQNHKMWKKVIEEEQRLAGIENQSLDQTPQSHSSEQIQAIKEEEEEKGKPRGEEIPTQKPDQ
Also: assay procedure not described here.

T1 sequence (P23219 whole entry): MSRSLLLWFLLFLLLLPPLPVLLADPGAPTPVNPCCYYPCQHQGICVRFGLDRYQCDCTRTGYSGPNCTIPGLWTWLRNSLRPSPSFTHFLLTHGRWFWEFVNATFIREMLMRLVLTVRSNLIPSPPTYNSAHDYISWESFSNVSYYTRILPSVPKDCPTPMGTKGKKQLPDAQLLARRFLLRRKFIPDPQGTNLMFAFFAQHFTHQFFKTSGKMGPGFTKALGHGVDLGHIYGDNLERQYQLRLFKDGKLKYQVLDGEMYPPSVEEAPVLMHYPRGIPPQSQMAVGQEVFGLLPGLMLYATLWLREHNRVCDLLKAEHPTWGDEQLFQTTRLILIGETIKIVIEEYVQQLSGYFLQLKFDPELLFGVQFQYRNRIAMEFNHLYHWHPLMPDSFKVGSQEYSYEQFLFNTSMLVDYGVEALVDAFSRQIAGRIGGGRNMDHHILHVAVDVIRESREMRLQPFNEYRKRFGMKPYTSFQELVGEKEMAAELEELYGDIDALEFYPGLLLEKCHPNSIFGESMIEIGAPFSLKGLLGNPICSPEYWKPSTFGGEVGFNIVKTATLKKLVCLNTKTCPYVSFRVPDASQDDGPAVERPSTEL
Sequence of Mu-type opioid receptor (P35372 whole entry): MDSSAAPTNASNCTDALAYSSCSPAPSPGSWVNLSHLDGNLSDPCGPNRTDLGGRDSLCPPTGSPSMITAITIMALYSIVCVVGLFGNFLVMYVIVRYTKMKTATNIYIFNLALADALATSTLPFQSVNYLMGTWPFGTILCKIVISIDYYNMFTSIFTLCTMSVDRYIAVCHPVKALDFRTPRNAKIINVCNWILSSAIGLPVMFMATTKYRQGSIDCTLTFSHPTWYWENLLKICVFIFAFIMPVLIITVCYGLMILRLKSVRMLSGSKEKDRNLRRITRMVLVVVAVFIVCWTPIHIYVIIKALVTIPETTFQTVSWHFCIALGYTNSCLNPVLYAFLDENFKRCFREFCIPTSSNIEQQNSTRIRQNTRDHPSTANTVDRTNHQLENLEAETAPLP

Row | SMILES | AC50 (Mu-type opioid receptor) [µM] | AC50 [1] [µM] | AC50 [2] [µM] | AC50 [3] [µM] | AC50 [4] [µM] | AC50 (Acetylcholinesterase) [µM] | AC50 (Thromboxane A2 receptor [5]) [µM] | AC50 [6] [µM] | AC50 (Histamine H3 receptor) [µM] | AC50 [7] [µM] | AC50 [8] [µM] | AC50 (D(3) dopamine receptor) [µM] | AC50 (D(1A) dopamine receptor) [µM] | AC50 (Prothrombin) [µM] | AC50 [9] [µM] | AC50 (Thromboxane A2 receptor [10]) [µM] | AC50 [11] [µM] | AC50 [12] [µM]
1 | C=CCN1CC[C@]23CCCC[C@H]2[C@H]1Cc1ccc(O)cc13 [LEVALLORPHAN] | 0.003 | > 30 | 8.54 | 14 | > 30 | 16.7 | > 30 | 27.6 | > 30 | > 30 | 8.91 | 23.4 | > 30 | > 30 | > 30 | > 30 | > 30 | > 30
2 | N[C@@H](CO)C(=O)O [SERINE] | > 30 | > 30 | > 30 | > 30 | > 30 | > 30 | > 30 | > 30 | > 30 | > 10 | > 30 | > 30 | > 30 | > 30 | > 30 | > 30 | > 30 | > 30
3 | [H]/N=C(\N/C(=N/[H])Nc1ccc(Cl)cc1)NC(C)C [PROGUANIL] | > 30 | > 30 | > 30 | 19 | 12.5 | > 30 | > 30 | > 30 | > 30 | > 30 | > 30 | > 30 | 8.26 | > 30 | 1.07 | > 30 | > 30 | > 30
4 | COc1c2ccoc2cc2oc(=O)ccc12 [BERGAPTEN] | > 30 | > 30 | > 30 | > 30 | > 30 | > 30 | > 30 | > 30 | > 30 | > 10 | > 30 | > 30 | > 30 | > 30 | > 30 | > 30 | > 30 | > 30
5 | CC(CCc1ccccc1)NCC(O)c1ccc(O)c(C(N)=O)c1 (stereo not drawn) [LABETALOL] | 2.42 | > 30 | > 30 | > 30 | 2.22 | > 30 | > 30 | 0.104 | > 30 | > 30 | > 30 | 5.85 | > 30 | > 30 | 4.04 | > 30 | > 30 | > 30
6 | OC[C@H]1O[C@@](CO)(O[C@H]2O[C@H](CO)[C@@H](O)[C@H](O)[C@H]2O)[C@@H](O)[C@@H]1O [SUCROSE] | > 30 | > 30 | > 30 | > 30 | > 30 | > 30 | > 30 | > 30 | > 30 | > 30 | > 30 | > 30 | > 30 | > 30 | > 30 | > 30 | > 30 | > 30
